From patent EP0392745B1, “Immunoconjugates and prodrugs and their use in association for drug delivery” (CELLTECH LIMITED, priority 1989, dated 1990)
Like-named read-outs stand apart in the source and are kept apart here.

What was measured:
[1] = test system: Mouse lymphoma cells, line L5178Y clone 3.7.2.C; assay: Cell tissue culture cytotoxicity assay of relative drug/prodrug toxicity; format: cell-based
Experimental: A tissue culture assay using a mouse lymphoma cell line [Phillips (1974), Biochem. Pharmacol. 23, 131-138] was used to determine the relative toxicity of drug and prodrug samples. The cepholosporin - prodrugs tested were those of Example 2,5,6 - 10 and 12.
For compounds of Examples 2, and 7-10 the corresponding non-cephalosporin linked drug was tested. In the case of compounds of Examples 5, 6 and 12 the drug portion of the prodrug was generated in situ in the assay by the addition of the enzyme β-lactamase as indicated below.
Mouse lymphoma cells, line L5178Y clone 3.7.2.C, was used for these studies. This clone was derived from the L5178Y wild-type line and is heterozygous for the thymidine kinase locus. It is widely used for assays of mutation to thymidine analogue resistance (loss of thymidine kinase). Stocks were maintained frozen in liquid nitrogen and recovered 7 days before the start of the study.
The cells were grown in RPMI 1640 medium buffered with 25 mM HEPES, and supplemented with 10% horse serum, 1mM sodium pyruvate, and 0.05% Pluriol (PF 6800 from BASF). In most cases, penicillin (100 iu/ml) and streptomycin (100µg/ml) were also included in the medium. Stock cultures were maintained by subculture into fresh medium every 2-3 days. Incubation was at 37 °C in an atmosphere of 5% CO₂ in air. Under these conditions, the cells grew as a static cell suspension with a population doubling time (cell cycle time) of 10-12 hr.
A growing culture, at a cell density of 1-2 x 10⁶/ml, was diluted with fresh medium to a density of 5 x 10⁵ cells/ml. An appropriate number of universal bottles was prepared with 4.5ml medium and O.5ml cell suspension to give a final cell concentration of 5 x 10⁴ cells/ml. In some tests, the cells were centrifuged and resuspended in Hank's Balanced Salt Solution (HBSS) to allow treatment in a simpler medium. […]
Cell growth was expressed as the number of population doublings (PD) achieved during a given time period ( t hrs ), calculated as follows: [drawing 5]
Growth relative to control ( % G ) was calculated for each treatment as follows: [drawing 6] […]

[2] = test system: O=C(Cc1cccs1)N[C@@H]1C(=O)N2C(C(=O)O)=C(CSc3ncnc4[nH]cnc34)CS[C@H]12; assay: purified protein, by the assay type; settings: 37.0 °C

For Nc1nc(SCC2=C(C(=O)O)N3C(=O)[C@@H](NC(=O)Cc4cccs4)[C@H]3SC2)c2[nH]cnc2n1 [Example 9, 3-(Guanin-6-ylthiomethyl)-7β-(2-acetamido)-3-cephem-4-carboxylic acid], the “Differential Toxicity (ID50 Prodrug/drug)” value ([1]; mouse lymphoma L5178Y cells) was 13 and the IC50 ([1]; mouse lymphoma L5178Y cells, growth relative to control, read-out: ID50 (the source's name)) was 6.44 µM.

Work on Nc1nc2nc[nH]c2c(=S)[nH]1 [Thioguanine (drug), Thioguanine, reference compound] yielded an IC50 ([1]; Mus musculus, L5178Y, read-out: ID50) of 0.53 µM.

“β-lactamase (E.coli RTEM) (Escherichia coli)” gave a Km [2] of 138 µM.
